Data set [1] concerns OvCar8 cells. Briefly: 2D monolayer viability assay (ApoLive-Glo). Format: cell-based. To be noted: Homo sapiens, OVCAR-8; OvCar8 2D monolayer, 48 h. How it is done: (§1) The efficacy of metabolites can have a significant impact on the efficacy of the drug. […] The therapeutic effect of P8-D6 mono and P8-D6 N-oxide was investigated in vitro in human ovarian cancer 2D monolayers and 3D spheroids (Figures and ). 48 h of treatment of the ovarian cancer cell lines (OvCar8, A2780, Igrov-1) with P8-D6 mono and P8-D6 N-oxide was compared to P8-D6 and cisplatin (study preparation scheme supplied as Figure S5). Both metabolites decreased viability in ovarian cancer cells in a 2D monolayer (Figure A, supplied as Figure S3 A,C).
The human ovarian cancer cell lines OvCar8, Igrov-1, and A2780, purchased from ATCC, were maintained in RPMI1640 medium, including L-glutamine supplemented with 10% fetal bovine serum and 60 IU/mL penicillin–streptomycin. Cells were grown at 37 °C and 5% CO2 in a humidified incubator and subcultivated at a confluency of 70–80%. Cell line authenticity was checked by STR profiling as described previously, and mycoplasma contamination was routinely investigated using MycoAlert (Lonza).
For the measurements of viability and apoptosis, cells of approximately 8000/well were seeded in a Corning No. 3903 plate and treated with the corresponding drugs for 48 h. After treatment, apoptosis and cell viability assays were performed using an ApoLive-Glo Multiplex Assay Kit (Promega #G6410) according to the manufacturer’s instructions. Fluorescence and luminescence units were measured by using a microplate multimode reader (Spark, Tecan). Relative caspase activity was calculated as caspase activity divided by viability (normalized to control). […] All experiments were performed in biological triplicates. PBS was used as the negative control, and cisplatin and P8-D6 were used as the positive controls.

Data set [2] concerns OvCar8 cells. Briefly: 2D monolayer apoptosis (caspase activity) assay (ApoLive-Glo). Format: cell-based, human. The settings on record: 48 h. The method, then: as §1
The human ovarian cancer cell lines OvCar8, Igrov-1, and A2780, purchased from ATCC, were maintained in RPMI1640 medium, including L-glutamine supplemented with 10% fetal bovine serum and 60 IU/mL penicillin–streptomycin. Cells were grown at 37 °C and 5% CO2 in a humidified incubator and subcultivated at a confluency of 70–80%. […]
For the measurements of viability and apoptosis, cells of approximately 8000/well were seeded in a Corning No. 3903 plate and treated with the corresponding drugs for 48 h. […] Fluorescence and luminescence units were measured by using a microplate multimode reader (Spark, Tecan). Relative caspase activity was calculated as caspase activity divided by viability (normalized to control). […]

For data set [3], the system named is OvCar8 spheroids. Description: 3D spheroid viability (RealTime-Glo). Format: cell-based, human. The settings on record: for IC50: Homo sapiens, OVCAR-8, OvCar8 3D spheroids, 48 h. The method, then:
(§2) Tumor complexity is represented more realistically in 3D spheroid models than in 2D monolayer models.
(§3) OvCar8 cells (8000/well) were seeded into an Ultra-Low-Attachment plate (Corning #4520) and grown for 96 h. Then, spheroids were treated with the drugs for 48 h. Cell cytotoxicity was assessed using the CellTox Green Cytotoxicity Assay (Promega #G8731) 48 h after treatment with NYONE ([…], 485Ex/520Em). Filters: BFEx/GreenEm (530/43 nm); BlueEx (475/28 nm)/GreenEm (530/43 nm). Viability and apoptosis were determined by RealTime-Glo (460Em) (Promega #G9711) and caspase-Glo 3/7 (565Em) (Promega #G8090) according to the manufacturer’s instructions using a microplate reader (Spark, Tecan). Relative caspase activity: caspase activity divided by the viability (normalized to control). For live-dead staining, cells were grown and treated as described above. Then, 80% of the medium was removed and replaced with propidium iodide (PI) (15 μM), calcein-AM (0.2 μM), and Hoechst 33342 (1.8 μM) in medium for 3 h and imaged by NYONE ([…]). Filters: BFEx/GreenEm(530/43 nm); Hoechst 33342: UVEx (377/50 nm)/BlueEm (452/45 nm); calcein-AM: BlueEx (475/28 nm)/GreenEm (530/43 nm); propidium iodide: LimeEx(562/40 nm)/RedEm(628/32 nm). All experiments were performed in biological triplicates. PBS was used as the negative control, and cisplatin and P8-D6 as the positive control.

Another data set has as its target T1, CYP2D6 (Homo sapiens, UniProt P10635).
T1 construct: host or cells: human liver microsomes (one value) / recombinant CYP enzyme (other value)
Briefly: Conversion of P8-D6 by recombinant CYP2D6. Format: in vitro ADME. The method, then: P8-D6 N-oxide was the most common metabolite for all incubations with subcellular fractions from the homogenized tissue. According to the detected MS-MS fragments (supplied as Supporting Information Chapter 2), it resulted from N-oxygenation of the nitrogen at the side chain since the unmodified fragment of P8-DO (m/z = 414.1) was detected. Furthermore, the detected fragment at m/z = 440.1 is most likely a carbocation at the remaining ethyl chain after splitting off the dimethylamine N-oxide further strengthening the theory of selectively forming this specific N-oxide. In addition, no relevant chemical shifts in the aromatic range of the ^1H NMR compared to P8-D6 and mono were observed (supplied as Supporting Information Chapter 2). Thus, no chemical modifications can have occurred on the aromatic rings, and all changes must therefore affect the side chain. […] To determine which enzymes were responsible for the conversion, seven recombinant CYP 450 isoenzymes recommended by the FDA’s “Guidance for Industry” and human FMO3 were used.
Among the recombinant enzymes, P8-D6 is mostly metabolized to P8-D6 mono by CYP3A4 (0.34%, significant compared to any other enzyme, p < 0.0001) and 2D6 (0.17%, significant compared to 2C8, 1A2, 2C19, and 2C9, p < 0.005) (Figure E). […]

Data set [4] deals with OvCar8 spheroids. Description: 3D spheroid cytotoxicity (CellTox Green). Format: cell-based. The settings on record: Homo sapiens, OVCAR-8, 48 h, OvCar8 3D spheroids, read-out: IC50 cell toxicity (CellTox Green). How it is done:
as §2, §3

SMILES strings stand for the structures.

T1 sequence (P10635 whole entry): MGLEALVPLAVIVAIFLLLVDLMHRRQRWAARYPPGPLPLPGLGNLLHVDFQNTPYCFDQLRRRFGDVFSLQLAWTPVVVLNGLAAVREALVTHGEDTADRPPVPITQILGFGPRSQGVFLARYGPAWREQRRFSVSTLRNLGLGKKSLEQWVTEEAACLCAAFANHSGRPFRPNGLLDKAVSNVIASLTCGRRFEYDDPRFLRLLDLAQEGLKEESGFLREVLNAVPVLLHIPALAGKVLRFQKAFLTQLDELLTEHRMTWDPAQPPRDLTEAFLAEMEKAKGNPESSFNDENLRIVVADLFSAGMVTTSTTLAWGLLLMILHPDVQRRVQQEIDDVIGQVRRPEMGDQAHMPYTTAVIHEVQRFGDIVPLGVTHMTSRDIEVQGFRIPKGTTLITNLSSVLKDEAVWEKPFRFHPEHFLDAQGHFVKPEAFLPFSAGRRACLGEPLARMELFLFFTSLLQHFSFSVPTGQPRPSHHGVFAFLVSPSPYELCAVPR

By IC50 is commonly meant the concentration that gives 50% inhibition. As to `COc1cc(-c2cc3ccncc3c3nc(OCC[N+](C)(C)[O-])c4cnccc4c23)cc(OC)c1OC` [P8-D6 N-oxide], the IC50 was found to be 1980 nM in the data set with OvCar8 cells [1] and 720 nM with OvCar8 spheroids [3]. Besides, in the data set with OvCar8 cells [2] (10 μM), the “apoptosis rate higher than cisplatin” value is given as 3.5 fold. For the same compound, the “efficacy increased compared to cisplatin” value in the data set on OvCar8 spheroids [3] (3D spheroids) was 18 fold. The “efficacy reduced compared to P8-D6 mono” value in the data set on OvCar8 spheroids [3] (3D spheroids) stood at 3 fold.
In the case of `CNCCOc1nc2c3cnccc3cc(-c3cc(OC)c(OC)c(OC)c3)c2c2ccncc12` [P8-D6 mono], the “formation of metabolite from P8-D6” value at CYP2D6 came out at 0.17%. Besides, the figures for the IC50 in the data set on OvCar8 cells [1], with OvCar8 spheroids [3] and in the data set on OvCar8 spheroids [4] were 310 nM, 240 nM and 2220 nM, respectively. The apoptosis induction result in the data set with OvCar8 cells [2] is reported as “comparable to that of P8-D6”.
For the compound `COc1cc(-c2cc3ccncc3c3nc(OCCN(C)C)c4cnccc4c23)cc(OC)c1OC` [P8-D6, 6-(N,N-dimethyl-2-aminoethoxy)-11-(3,4,5-trimethoxyphenyl)-pyrido[3,4-c][1,9]-phenanthroline], the IC50 in the data set on OvCar8 cells [1] was found to be 270 nM; in the data set with OvCar8 spheroids [4], 1110 nM.
For `COc1cc(-c2cc3ccncc3c3[nH]c(=O)c4cnccc4c23)cc(OC)c1OC` [P8-DO], the “formation of metabolite from P8-D6” value on CYP2D6 came out at 0.09%.
